Test results: patent publication US20240408325A1, “HANDHELD MEDICAL DEVICE WITH IMPROVED DELIVERY OF AEROSOL PARTICLES” (ALEXZA PHARMACEUTICALS, INC., priority 2021, published 2024)
Counter-ions that a name gives are not always drawn.

Assay: Purity of the aerosol versus drug foil temperature (Method 2)
Format: physicochemical
Conditions: Devices A, 1.0 mg coated
Experimental: Solutions were analysed by UPLC with water (ammonium formate/formic acid) and acetonitrile as mobile phase using UV detection at 275 nm as acquisition wavelength.
This method is based on the US Pharmacopeia “Sampling the Delivered Dose from Metered-Dose Inhalers” of the “Metered-Dose Inhalers and Dry Powder Inhalers” section.
The mouthpiece of the device to be tested was tightly attached to a mouthpiece adapter connected to an end of a 12 cm sample connection tube which at the other end has attached a filter support cap having a ø 47 mm, 2.2 μm pore size, quartz filter (QM-A, Whatman) which was connected to a pump to create an airflow which triggers the flow sensor and the foil substrate is heated.
The material in the filter and the sample connection tube was extracted with methanol and analysed as in Method 1.
The foil substrates of Devices A were coated with 1.0 mg of apomorphine HCl and tested as in Method 2 at different drug foil temperatures (2 devices per temperature point except 310° C. where 4 devices were used). The devices are triggered at a 30 mL/min airflow.

TAerosol purity (drug foil 260 °C): 98.4 ± 0.6% | TAerosol purity (drug foil 290 °C): 96.4 ± 0.9% | TAerosol purity (drug foil 310 °C): 95 ± 1% | TAerosol purity (drug foil 320 °C): 90.9 ± 0.8%
Compound: CN1CCc2cccc3c2[C@H]1Cc1ccc(O)c(O)c1-3 [apomorphine HCl]
